As usually defined, the IC50 is the concentration at which inhibition is half-maximal. As a reminder, the Ki is the equilibrium dissociation constant of an inhibitor or competing ligand from its target. Read a high Ki as lower affinity.

Data set [1] concerns the target T1, soybean lipoxygenase-1 (LOX-1) (Glycine max, UniProt P08170).
T1 construct: purchased Sigma-Aldrich, Brazil
T1 sequence (P08170 1-839): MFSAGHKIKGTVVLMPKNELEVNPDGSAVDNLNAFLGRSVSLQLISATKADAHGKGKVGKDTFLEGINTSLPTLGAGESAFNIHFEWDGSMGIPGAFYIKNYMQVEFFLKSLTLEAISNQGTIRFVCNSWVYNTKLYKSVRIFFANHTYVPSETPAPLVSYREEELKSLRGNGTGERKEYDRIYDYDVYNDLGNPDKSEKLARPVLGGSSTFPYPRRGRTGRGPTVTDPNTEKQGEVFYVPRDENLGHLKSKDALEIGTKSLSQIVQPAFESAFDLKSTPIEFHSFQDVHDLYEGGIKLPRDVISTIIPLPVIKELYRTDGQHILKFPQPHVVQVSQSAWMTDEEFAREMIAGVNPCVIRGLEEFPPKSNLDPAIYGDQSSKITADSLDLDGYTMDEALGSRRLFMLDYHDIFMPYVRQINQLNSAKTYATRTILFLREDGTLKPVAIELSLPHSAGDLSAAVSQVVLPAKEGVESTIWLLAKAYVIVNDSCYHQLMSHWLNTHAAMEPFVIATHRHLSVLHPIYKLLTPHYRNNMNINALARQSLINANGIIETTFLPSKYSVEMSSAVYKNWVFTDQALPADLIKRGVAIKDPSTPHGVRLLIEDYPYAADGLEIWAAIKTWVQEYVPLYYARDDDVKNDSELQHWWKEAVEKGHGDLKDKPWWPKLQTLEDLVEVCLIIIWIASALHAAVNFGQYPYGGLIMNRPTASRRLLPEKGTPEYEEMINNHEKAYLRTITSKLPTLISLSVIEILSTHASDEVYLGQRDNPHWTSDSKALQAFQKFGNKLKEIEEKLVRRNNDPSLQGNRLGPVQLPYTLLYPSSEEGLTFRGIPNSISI
Briefly: LOX-1 inhibition, spectrophotometric assay of conjugated diene formed by linoleic acid oxidation. The data set is classed as biochemical. As to the method:
For the in vitro screening to identify the inhibitors of the enzymatic activity of LOX-1, a spectrophotometric assay was employed in order to measure the conjugated diene formed by linoleic acid oxidation. Soybean LOX-1, which converts linoleic acid to 13-hydroperoxylinoleic acid, is inhibited by NSAIDs in a qualitatively similar way to that of the rat mast cell line 5-LOX, and it may be used as a reliable screening target for this activity. The screening was performed with compounds from Brazilian biodiversity (NuBBEDB) and synthetic derivatives previously synthesized by using natural products as models. In this context, a variety of natural products were evaluated, such as triterpenes, chalcones, casearins, alkaloids, guanidines, and flavonoids.
(§1) The ability of chalcones 1–6 to act as LOX-1 inhibitors was evaluated according to a method from Ha et al. (2004). Initially, 2.910 mL Tris-HCl buffer ([…] (pH 8.0), Sigma-Aldrich, Brazil) was added to a quartz cuvette, followed by the addition of 25 μL LOX-1 (final concentration 1 μM, Sigma-Aldrich, Brazil) and 10 μL of the compounds tested (the final concentration ranged from 1 to 20 μM). The solution was incubated for 5 min at 25 °C. The reaction was started with the addition of linoleic acid (55 μL, 1 mM, Sigma-Aldrich, Brazil), and the LOX-1 activity was monitored at λ = 221 nm, pH 8.0, and 25 °C by an absorbance spectrophotometer in UV-Vis (Perkin Elmer Lambda 22, Waltham, MA, USA). For the determination of KM, varying substrate concentrations were used (linoleic acid, 13.7–91.7 µM) and 1 µM LOX-1. […] The spectrophotometric measurements at λ = 221 nm are associated with the conjugated double bonds formed from the linoleic acid substrate.

Data set [2] deals with T2, LOX-1 (Glycine max, UniProt P08170).
T2 sequence (P08170 1-839): T1 sequence (P08170 1-839)
Description: Enzyme kinetics, mechanism of LOX-1 inhibition. The data set is classed as biochemical, soybean (Glycine max). As to the method: as §1

Data set [3] deals with T2, LOX-1. Description: Oxygen consumption by the catalytic activity of LOX (polarography, O2-selective electrode). It is filed as biochemical, soybean (Glycine max). Conditions: compound at 10 µM, 25 °C.
Description: A polarography-based assay was used to evaluate the rate of the oxygen consumption during LOX-1 inhibition, during which oxygen consumption is associated with the formation of a hydroperoxyl group [28]. In order to evaluate the decrease in oxygen consumption upon LOX-1 inhibition by the prenyl chalcone 6, an O2-selective electrode coupled to an oxygen monitoring probe was employed. […] The oxygen consumption was monitored using an O2-selective electrode coupled to a YSI 5300 Oxygen Monitor (Yellow Springs, OH, USA) at 25 °C. The reactions were initiated by adding O2 (100 μM), followed by the addition of LOX (20 nM) in 0.1 M Phosphate buffered saline (PBS), with pH 7.4 at 25 °C and the compounds being tested [32].
For data set [4] the following is noted: cited from earlier work.
[5] abbreviates: LOX-1 1 µM, linoleic acid substrate, pH 8.0, 25 °C, mean and standard deviation of three independent experiments, read-out: IC50 for the inhibition of lipoxygenase-1.

Entries after “also recorded” stand apart in the source; their conditions may differ. Where two headings read alike, the source gives them in different places.

In the case of `O=C(/C=C/c1ccccc1O)c1ccccc1` [Compound 1], the IC50 in data set [1] (setting [5]) was over 50 µM.
Same read-out and setting: under `O=C(/C=C/c1cccc(O)c1)c1ccccc1` [Compound 2] stands over 50 µM.
In turn, `O=C(/C=C/c1ccc(O)cc1)c1ccccc1` [Compound 3, (E)-4-hydroxychalcone] yielded a half-inhibitory concentration (IC50) in data set [1] of over 50 µM.
Consider `CC(C)=CCOc1ccccc1/C=C/C(=O)c1ccccc1` [Compound 4, 2-O-prenyl chalcone], for which the IC50 in data set [1] (setting [5]) was over 50 µM.
Still for that read-out and setting: for `CC(C)=CCC/C(C)=C/COc1cccc(/C=C/C(=O)c2ccccc2)c1` [Compound 5, 3-O-geranyl chalcone] the value was 11.8 ± 0.9 µM.
As for `CC(C)=CCC/C(C)=C/CC/C(C)=C/COc1ccccc1/C=C/C(=O)c1ccccc1` [Compound 6, (E)-2-O-farnesyl chalcone], the mechanism of inhibition entry in data set [2] (LOX-1, enzyme kinetics) is “competitive”. Besides, the Ki in data set [2] (increasing concentrations of 6 (5–10 µM), linoleic acid substrate) was found to be 7 µM. In addition, the figures for the “oxygen consumption during LOX-1 catalysis” value in data set [3] and in data set [3] (listed as (E)-2-O-farnesyl chalcone) were “delay of the oxygen consumption; also recorded: lower rate of oxygen consumption” and “decreased the rate of oxygen consumption”, respectively. The IC50 in data set [1] (setting [5]) was found to be 5.7 ± 0.8 µM. The “fold more potent in LOX-1 inhibition than 2-O-prenyl chalcone (4)” value in data set [1] (ratio of IC50 values, versus compound 4) is listed as over 10 fold.
Take `CC(Cc1ccc(O)c(O)c1)C(C)Cc1ccc(O)c(O)c1` (stereo not shown) [Nordihydroguaiaretic acid (NDGA), Nordihydroguaiaretic acid, reference compound]: the “toxicity on long-term use” value in data set [4] is “liver damage and kidney dysfunction”. Also, the “oxygen consumption during LOX-1 catalysis” value in data set [3] is “lower rate of oxygen consumption”.

Source of the values: article PMC8069166, “Identification of a Prenyl Chalcone as a Competitive Lipoxygenase Inhibitor: Screening, Biochemical Evaluation and Molecular Modeling Studies” (Molecules, 2021).
